From patent US20220389007A1, “INHIBITORS OF HUMAN IMMUNODEFICIENCY VIRUS REPLICATION” (VIIV HEALTHCARE UK (No. 5) LIMITED, priority 2019, published 2022)
pEC50: −log10 of the molar value.

Legend:
recombinant NL4-3 virus = assay: HIV cell culture assay (antiviral activity, luciferase readout); format: cell-based; conditions: Human immunodeficiency virus 1, NL43, MT2, MT-2 cells infected for 4-5 days with recombinant NL4-3 virus carrying Renilla luciferase
How it was run: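 MT-2 cells infected for 4-5 days with NL4-3 reference virus carrying Renilla luciferase in place of part of nef, in presence of serial compound dilutions. Luciferase read with live-cell substrate; EC50 from median effect equation fit.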

[1] = Compound cytotoxicity, XTT-based colorimetric assay; format: cell-based; conditions: human; uninfected MT2 cells, day 4, XTT assay
How it was run: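 Run under the antiviral-assay protocol but without virus. Viability was read on day 4 and CC50 values were derived from the readout.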

SMILES	pEC50 (recombinant NL4-3 virus)	CC50 at 4 day [1] [nM]
Cn1nc(NS(C)(=O)=O)c2c(Cl)ccc(-n3c([C@H](Cc4cc(F)cc(F)c4)NC(=O)Cn4nc(C(F)F)c5c4C(F)(F)[C@@H]4C[C@H]54)nc4nc(-c5ccn(CCC(F)(F)F)n5)ccc4c3=O)c21 (atropisomer, axis not shown; (P)) [Example 89, N-((S)-1-((3P)-3-(4-chloro-1-methyl-3-(methylsulfonamido)-1H-indazol-7-yl)-4-oxo-7-(1-(3,3,3-trifluoropropyl)-1H-pyrazol-3-yl)-3,4-dihydropyrido[2,3-d]pyrimidin-2-yl)-2-(3,5-difluorophenyl)ethyl)-2-((3bS,4aR)-3-(difluoromethyl)-5,5-difluoro-3b,4,4a,5-tetrahydro-1H-cyclopropa[3,4]cyclopenta[1,2-c]pyrazol-1-yl)acetamide]	10.25	> 100
Cn1nc(NS(C)(=O)=O)c2c(Cl)ccc(-n3c([C@H](Cc4cc(F)cc(F)c4)NC(=O)Cn4nc(C(F)F)c5c4C(F)(F)[C@@H]4C[C@H]54)nc4nc(-c5cccc(C(F)(F)F)c5)ccc4c3=O)c21 (atropisomer, axis not shown; (P)) [Example 24, N-((S)-1-((3P)-3-(4-chloro-1-methyl-3-(methylsulfonamido)-1H-indazol-7-yl)-4-oxo-7-(3-(trifluoromethyl)phenyl)-3,4-dihydropyrido[2,3-d]pyrimidin-2-yl)-2-(3,5-difluorophenyl)ethyl)-2-((3bS,4aR)-3-(difluoromethyl)-5,5-difluoro-3b,4,4a,5-tetrahydro-1H-cyclopropa[3,4]cyclopenta[1,2-c]pyrazol-1-yl)acetamide]	9.80	> 100
Cn1nc(NS(C)(=O)=O)c2c(Cl)ccc(-n3c([C@H](Cc4cc(F)cc(F)c4)NC(=O)Cn4nc(C(F)F)c5c4C(F)(F)[C@@H]4C[C@H]54)nc4nc(-c5cccc(C(F)(F)F)n5)ccc4c3=O)c21 (atropisomer, axis not shown; (P)) [Example 9, N-((S)-1-((3P)-3-(4-chloro-1-methyl-3-(methylsulfonamido)-1H-indazol-7-yl)-4-oxo-7-(6-(trifluoromethyl)pyridin-2-yl)-3,4-dihydropyrido[2,3-d]pyrimidin-2-yl)-2-(3,5-difluorophenyl)ethyl)-2-((3bS,4aR)-3-(difluoromethyl)-5,5-difluoro-3b,4,4a,5-tetrahydro-1H-cyclopropa[3,4]cyclopenta[1,2-c]pyrazol-1-yl)acetamide]	10.19	> 100
Cn1nc(NS(C)(=O)=O)c2c(Cl)ccc(-n3c([C@H](Cc4cc(F)cc(F)c4)NC(=O)Cn4nc(C(F)F)c5c4C(F)(F)[C@@H]4C[C@H]54)nc4nc(-c5cc(C(F)(F)F)ccn5)ccc4c3=O)c21 (atropisomer, axis not shown; (P)) [Example 16, N-((S)-1-((3P)-3-(4-chloro-1-methyl-3-(methylsulfonamido)-1H-indazol-7-yl)-4-oxo-7-(4-(trifluoromethyl)pyridin-2-yl)-3,4-dihydropyrido[2,3-d]pyrimidin-2-yl)-2-(3,5-difluorophenyl)ethyl)-2-((3bS,4aR)-3-(difluoromethyl)-5,5-difluoro-3b,4,4a,5-tetrahydro-1H-cyclopropa[3,4]cyclopenta[1,2-c]pyrazol-1-yl)acetamide]	10.28	> 100
Cc1cc(-c2ccc3c(=O)n(-c4ccc(Cl)c5c(NS(C)(=O)=O)nn(C)c45)c([C@H](Cc4cc(F)cc(F)c4)NC(=O)Cn4nc(C(F)F)c5c4C(F)(F)[C@@H]4C[C@H]54)nc3n2)n(C)n1 (atropisomer, axis not shown; (P)) [Example 70, N-((S)-1-((3P)-3-(4-chloro-1-methyl-3-(methylsulfonamido)-1H-indazol-7-yl)-7-(1,3-dimethyl-1H-pyrazol-5-yl)-4-oxo-3,4-dihydropyrido[2,3-d]pyrimidin-2-yl)-2-(3,5-difluorophenyl)ethyl)-2-((3bS,4aR)-3-(difluoromethyl)-5,5-difluoro-3b,4,4a,5-tetrahydro-1H-cyclopropa[3,4]cyclopenta[1,2-c]pyrazol-1-yl)acetamide]	10.39	> 100
